In ChEMBL document CHEMBL5252552, “Defined concatenated α6α1β3γ2 GABAA receptor constructs reveal dual action of pyrazoloquinolinone allosteric modulators” (Bioorg Med Chem, 2019):

Tests used:
[1] = target: T1, Gamma-aminobutyric acid receptor subunit alpha-6/beta-3/gamma-2 (Rattus norvegicus) (UniProt P18508+P30191+P63079); test: Positive allosteric modulation of rat recombinant GABAA alpha6beta3alpha6-gamma2beta3 receptor expressed in Xenopus laevis oocytes assessed as maximal efficacy at -80 mV holding potential at 10 nM in presence of GABA EC1 to 1.5 by two-electrode voltage-clamp assay; type: cell-based; conditions: Oocyte
[2] = target: T1, Gamma-aminobutyric acid receptor subunit alpha-6/beta-3/gamma-2 (Rattus norvegicus); test: Positive allosteric modulation of rat recombinant GABAA alpha6beta3alpha6-gamma2beta3 receptor expressed in Xenopus laevis oocytes assessed as maximal current under less potent phase in presence of GABA EC1 to 1.5 by two-electrode voltage-clamp assay relative to control; type: cell-based; conditions: Oocyte, filed as positive allosteric modulator
[3] = target: T1, Gamma-aminobutyric acid receptor subunit alpha-6/beta-3/gamma-2 (Rattus norvegicus); test: Positive allosteric modulation of rat recombinant GABAA alpha6beta3alpha6-gamma2beta3 receptor expressed in Xenopus laevis oocytes assessed as maximal efficacy at -80 mV holding potential at 1 uM in presence of GABA EC1 to 1.5 by two-electrode voltage-clamp assay; type: cell-based; conditions: Oocyte, filed as positive allosteric modulator
[4] = target: T1, Gamma-aminobutyric acid receptor subunit alpha-6/beta-3/gamma-2 (Rattus norvegicus); test: Positive allosteric modulation of rat recombinant GABAA alpha6beta3alpha6-gamma2beta3 receptor expressed in Xenopus laevis oocytes assessed as maximal efficacy at -80 mV holding potential at 300 nM in presence of GABA EC1 to 1.5 by two-electrode voltage-clamp assay; type: cell-based; conditions: Oocyte, filed as positive allosteric modulator
[5] = target: T2, Gamma-aminobutyric acid receptor subunit alpha-1/alpha-6/beta-3/gamma-2 (Rattus norvegicus) (UniProt P18508+P30191+P62813+P63079); test: Positive allosteric modulation of rat recombinant GABAA alpha6beta3alpha1-gamma2beta3 receptor expressed in Xenopus laevis oocytes assessed as maximal efficacy at -80 mV holding potential at 30 nM in presence of GABA EC1 to 1.5 by two-electrode voltage-clamp assay; type: cell-based; conditions: Oocyte
[6] = target: T1, Gamma-aminobutyric acid receptor subunit alpha-6/beta-3/gamma-2 (Rattus norvegicus); test: (§1) Positive allosteric modulation of rat recombinant GABAA alpha6beta3alpha6-gamma2beta3 receptor expressed in Xenopus laevis oocytes assessed as maximal current at -80 mV holding potential under more potent phase in presence of GABA EC1 to 1.5 by two-electrode voltage-clamp assay relative to control; type: cell-based; conditions: Oocyte, filed as positive allosteric modulator
[7] = target: T3, Gamma-aminobutyric acid receptor subunit alpha-6/beta-3/gamma-2 (Rattus norvegicus, UniProt P18508+P30191+P63079); test: as §1, with “increase in GABA-induced” for “maximal”, “current amplitude” for “current”, “less” for “more”, “assay” for “assay relative to control”; type: cell-based, Oocyte
[8] = target: T2, Gamma-aminobutyric acid receptor subunit alpha-1/alpha-6/beta-3/gamma-2 (Rattus norvegicus); test: Positive allosteric modulation of rat recombinant GABAA alpha6beta3alpha1-gamma2beta3 receptor expressed in Xenopus laevis oocytes assessed as maximal efficacy at -80 mV holding potential at 100 nM in presence of GABA EC1 to 1.5 by two-electrode voltage-clamp assay; type: cell-based; conditions: Oocyte
[9] = target: T1, Gamma-aminobutyric acid receptor subunit alpha-6/beta-3/gamma-2 (Rattus norvegicus); test: Positive allosteric modulation of rat recombinant GABAA alpha6beta3alpha6-gamma2beta3 receptor expressed in Xenopus laevis oocytes assessed as maximal efficacy at -80 mV holding potential at 3 uM in presence of GABA EC1 to 1.5 by two-electrode voltage-clamp assay; type: cell-based; conditions: Oocyte, filed as positive allosteric modulator
[10] = target: T3, Gamma-aminobutyric acid receptor subunit alpha-6/beta-3/gamma-2; test: as §1, with “increase in GABA-induced” for “maximal”, “current amplitude” for “current”, “assay” for “assay relative to control”; type: cell-based, Oocyte
[11] = target: T1, Gamma-aminobutyric acid receptor subunit alpha-6/beta-3/gamma-2 (Rattus norvegicus); test: Positive allosteric modulation of rat recombinant GABAA alpha6beta3alpha6-gamma2beta3 receptor expressed in Xenopus laevis oocytes assessed as maximal efficacy at -80 mV holding potential at 100 nM in presence of GABA EC1 to 1.5 by two-electrode voltage-clamp assay; type: cell-based; conditions: Oocyte, filed as positive allosteric modulator
[12] = target: T1, Gamma-aminobutyric acid receptor subunit alpha-6/beta-3/gamma-2 (Rattus norvegicus); test: Positive allosteric modulation of rat recombinant GABAA alpha6beta3alpha6-gamma2beta3 receptor expressed in Xenopus laevis oocytes assessed as maximal efficacy at -80 mV holding potential at 1 nM in presence of GABA EC1 to 1.5 by two-electrode voltage-clamp assay; type: cell-based; conditions: Oocyte
[13] = target: T2, Gamma-aminobutyric acid receptor subunit alpha-1/alpha-6/beta-3/gamma-2 (Rattus norvegicus); test: Positive allosteric modulation of rat recombinant GABAA alpha6beta3alpha1-gamma2beta3 receptor expressed in Xenopus laevis oocytes assessed as maximal efficacy at -80 mV holding potential at 300 nM in presence of GABA EC1 to 1.5 by two-electrode voltage-clamp assay; type: cell-based; conditions: Oocyte
[14] = target: T1, Gamma-aminobutyric acid receptor subunit alpha-6/beta-3/gamma-2 (Rattus norvegicus); test: Positive allosteric modulation of rat recombinant GABAA alpha6beta3alpha6-gamma2beta3 receptor expressed in Xenopus laevis oocytes assessed as maximal efficacy at -80 mV holding potential at 30 uM in presence of GABA EC1 to 1.5 by two-electrode voltage-clamp assay; type: cell-based; conditions: Oocyte, filed as positive allosteric modulator
[15] = target: T1, Gamma-aminobutyric acid receptor subunit alpha-6/beta-3/gamma-2 (Rattus norvegicus); test: Positive allosteric modulation of rat recombinant GABAA alpha6beta3alpha6-gamma2beta3 receptor expressed in Xenopus laevis oocytes assessed as maximal efficacy at -80 mV holding potential at 10 uM in presence of GABA EC1 to 1.5 by two-electrode voltage-clamp assay; type: cell-based; conditions: Oocyte, filed as positive allosteric modulator
[16] = target: T1, Gamma-aminobutyric acid receptor subunit alpha-6/beta-3/gamma-2 (Rattus norvegicus); test: Positive allosteric modulation of rat recombinant GABAA alpha6beta3alpha6-gamma2beta3 receptor expressed in Xenopus laevis oocytes assessed as maximal efficacy at -80 mV holding potential at 30 nM in presence of GABA EC1 to 1.5 by two-electrode voltage-clamp assay; type: cell-based; conditions: Oocyte
[17] = target: T1, Gamma-aminobutyric acid receptor subunit alpha-6/beta-3/gamma-2 (Rattus norvegicus); test: Positive allosteric modulation of rat recombinant GABAA alpha6beta3alpha6-gamma2beta3 receptor expressed in Xenopus laevis oocytes assessed as maximal efficacy at -80 mV holding potential at 3 nM in presence of GABA EC1 to 1.5 by two-electrode voltage-clamp assay; type: cell-based; conditions: Oocyte
[18] = target: T4, Gamma-aminobutyric acid receptor subunit alpha-1/beta-3/gamma-2 (Rattus norvegicus) (UniProt P18508+P62813+P63079); test: Positive allosteric modulation of rat recombinant GABAA alpha1beta3alpha1-gamma2beta3 receptor expressed in Xenopus laevis oocytes assessed as maximal efficacy at -80 mV holding potential at 30 uM in presence of GABA EC1 to 1.5 by two-electrode voltage-clamp assay; type: cell-based; conditions: Oocyte
[19] = target: T2, Gamma-aminobutyric acid receptor subunit alpha-1/alpha-6/beta-3/gamma-2 (Rattus norvegicus); test: Positive allosteric modulation of rat recombinant GABAA alpha6beta3alpha1-gamma2beta3 receptor expressed in Xenopus laevis oocytes assessed as maximal efficacy at -80 mV holding potential at 30 uM in presence of GABA EC1 to 1.5 by two-electrode voltage-clamp assay; type: cell-based; conditions: Oocyte, filed as positive allosteric modulator
Oocyte = test: Positive allosteric modulation of rat recombinant GABAA alpha1beta3alpha1 receptor expressed in Xenopus laevis oocytes assessed as activation of maximal current at -80 mV holding potential in presence of GABA EC1 to 1.5 by two-electrode voltage-clamp assay; type: cell-based; conditions: filed as positive allosteric modulator
[20] = target: T3, Gamma-aminobutyric acid receptor subunit alpha-6/beta-3/gamma-2; test: Positive allosteric modulation of rat recombinant GABAA alpha6beta3alpha6-gamma2beta3 receptor expressed in Xenopus laevis oocytes assessed as increase in GABA-induced current amplitude at -80 mV holding potential in presence of GABA EC1 to 1.5 by two-electrode voltage-clamp assay; type: cell-based, Oocyte
[21] = target: T1, Gamma-aminobutyric acid receptor subunit alpha-6/beta-3/gamma-2 (Rattus norvegicus); test: Positive allosteric modulation of rat recombinant GABAA alpha6beta3alpha6-gamma2beta3 receptor expressed in Xenopus laevis oocytes assessed as maximal current at -80 mV holding potential in presence of GABA EC1 to 1.5 by two-electrode voltage-clamp assay relative to control; type: cell-based; conditions: Oocyte, filed as positive allosteric modulator
[22] = target: T1, Gamma-aminobutyric acid receptor subunit alpha-6/beta-3/gamma-2 (Rattus norvegicus); test: Positive allosteric modulation of rat recombinant GABAA alpha6beta3gamma2 receptor expressed in Xenopus laevis oocytes assessed as potentiation of GABA-induced response under less potent current at -80 mV holding potential at 30 uM in presence of GABA EC1 to 1.5 by two-electrode voltage-clamp assay; type: cell-based; conditions: Oocyte, filed as positive allosteric modulator
[23] = target: T4, Gamma-aminobutyric acid receptor subunit alpha-1/beta-3/gamma-2 (Rattus norvegicus); test: Positive allosteric modulation of rat recombinant GABAA alpha1beta3alpha1-gamma2beta3 receptor expressed in Xenopus laevis oocytes assessed as maximal efficacy at -80 mV holding potential at 300 nM in presence of GABA EC1 to 1.5 by two-electrode voltage-clamp assay; type: cell-based; conditions: Oocyte
[24] = target: T4, Gamma-aminobutyric acid receptor subunit alpha-1/beta-3/gamma-2 (Rattus norvegicus); test: Positive allosteric modulation of rat recombinant GABAA alpha1beta3alpha1-gamma2beta3 receptor expressed in Xenopus laevis oocytes assessed as maximal efficacy at -80 mV holding potential at 100 nM in presence of GABA EC1 to 1.5 by two-electrode voltage-clamp assay; type: cell-based; conditions: Oocyte
[25] = target: T4, Gamma-aminobutyric acid receptor subunit alpha-1/beta-3/gamma-2 (Rattus norvegicus); test: Positive allosteric modulation of rat recombinant GABAA alpha1beta3alpha1-gamma2beta3 receptor expressed in Xenopus laevis oocytes assessed as maximal efficacy at -80 mV holding potential at 30 nM in presence of GABA EC1 to 1.5 by two-electrode voltage-clamp assay; type: cell-based; conditions: Oocyte
[26] = target: T1, Gamma-aminobutyric acid receptor subunit alpha-6/beta-3/gamma-2 (Rattus norvegicus); test: Positive allosteric modulation of rat recombinant GABAA alpha6beta3gamma2 receptor expressed in Xenopus laevis oocytes assessed as potentiation of GABA-induced response under more potent current at -80 mV holding potential at 30 uM in presence of GABA EC1 to 1.5 by two-electrode voltage-clamp assay; type: cell-based; conditions: Oocyte, filed as positive allosteric modulator
[27] = target: T1, Gamma-aminobutyric acid receptor subunit alpha-6/beta-3/gamma-2 (Rattus norvegicus); test: Positive allosteric modulation of rat recombinant GABAA alpha6beta3gamma2 receptor expressed in Xenopus laevis oocytes assessed as potentiation of GABA-induced response under more potent current at -80 mV holding potential at 100 nM in presence of GABA EC1 to 1.5 by two-electrode voltage-clamp assay; type: cell-based; conditions: Oocyte, filed as positive allosteric modulator
[28] = filed as positive allosteric modulator

T3 sequence (P18508 whole entry): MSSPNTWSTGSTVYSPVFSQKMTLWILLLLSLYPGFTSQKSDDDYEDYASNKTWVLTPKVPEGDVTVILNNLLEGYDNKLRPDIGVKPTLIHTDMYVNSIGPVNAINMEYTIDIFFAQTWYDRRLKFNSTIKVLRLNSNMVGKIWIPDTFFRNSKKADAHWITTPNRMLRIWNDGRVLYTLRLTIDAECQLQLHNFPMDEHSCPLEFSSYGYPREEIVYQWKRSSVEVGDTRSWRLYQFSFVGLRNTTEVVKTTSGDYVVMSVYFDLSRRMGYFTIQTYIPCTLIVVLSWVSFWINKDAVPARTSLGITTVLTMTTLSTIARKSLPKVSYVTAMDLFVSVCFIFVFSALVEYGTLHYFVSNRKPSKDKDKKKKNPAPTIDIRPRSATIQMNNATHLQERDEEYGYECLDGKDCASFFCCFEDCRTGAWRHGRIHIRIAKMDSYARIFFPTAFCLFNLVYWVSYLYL
T3 sequence (P30191 whole entry): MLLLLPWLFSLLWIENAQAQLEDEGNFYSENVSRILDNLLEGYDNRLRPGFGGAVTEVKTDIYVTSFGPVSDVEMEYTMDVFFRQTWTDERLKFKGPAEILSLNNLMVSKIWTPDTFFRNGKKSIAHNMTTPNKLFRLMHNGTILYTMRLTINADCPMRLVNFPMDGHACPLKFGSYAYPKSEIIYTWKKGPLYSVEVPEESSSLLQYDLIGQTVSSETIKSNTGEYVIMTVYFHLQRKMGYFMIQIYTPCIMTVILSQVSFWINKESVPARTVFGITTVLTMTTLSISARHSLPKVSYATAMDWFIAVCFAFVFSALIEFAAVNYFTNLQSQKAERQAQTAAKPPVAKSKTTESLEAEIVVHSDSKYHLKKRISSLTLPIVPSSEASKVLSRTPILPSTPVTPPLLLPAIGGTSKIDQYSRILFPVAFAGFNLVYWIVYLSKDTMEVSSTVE
T3 sequence (P63079 whole entry): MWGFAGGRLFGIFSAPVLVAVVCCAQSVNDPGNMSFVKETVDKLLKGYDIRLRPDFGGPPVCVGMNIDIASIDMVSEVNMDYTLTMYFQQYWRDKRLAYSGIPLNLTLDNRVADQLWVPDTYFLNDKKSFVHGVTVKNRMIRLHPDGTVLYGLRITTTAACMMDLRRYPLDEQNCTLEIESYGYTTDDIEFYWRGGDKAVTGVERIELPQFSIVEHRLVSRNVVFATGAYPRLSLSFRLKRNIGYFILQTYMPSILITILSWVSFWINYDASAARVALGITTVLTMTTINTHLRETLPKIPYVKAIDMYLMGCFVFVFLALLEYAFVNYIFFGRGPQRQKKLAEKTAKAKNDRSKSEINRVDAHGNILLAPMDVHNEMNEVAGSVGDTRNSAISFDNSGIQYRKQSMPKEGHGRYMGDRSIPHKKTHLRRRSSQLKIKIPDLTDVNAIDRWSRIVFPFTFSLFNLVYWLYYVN

CCc1ccc2c3nn(-c4ccc(OC)cc4)c(=O)c-3c[nH]c2c1
Efficacy [1]: 21%
%max [2]: 4980%
Efficacy [3]: 127%
Efficacy [4]: 74%
Efficacy [5]: 5%
%max [6]: 57%
EC50 [7]: 299 µM
Efficacy [8]: 5%
Efficacy [9]: 216%
EC50 [10]: 0.023 µM
Efficacy [11]: 54%
Efficacy [12]: 3%
Efficacy [13]: 7%
Efficacy [14]: 1940%
Efficacy [15]: 621%
Efficacy [16]: 29%
Efficacy [17]: 4%
Efficacy [18, 28]: 1040%
Efficacy [19]: 1510%

CN1C(=O)CN=C(c2ccccc2)c2cc(Cl)ccc21
Activity (Oocyte): 30 nanoampere

COc1ccc(-n2nc3c4ccccc4[nH]cc-3c2=O)cc1
Efficacy [1]: 8%
Efficacy [3]: 152%
Efficacy [4]: 63%
Efficacy [9]: 214%
Efficacy [11]: 57%
Efficacy [14]: 1360%
Efficacy [15]: 751%
EC50 [20]: 9 µM
%max [21]: 1480%
Efficacy [16]: 19%
Efficacy [17]: 1%

COc1ccc(-n2nc3c4ccc(OC)cc4[nH]cc-3c2=O)cc1
Efficacy [1, 28]: 75%
%max [2]: 1630%
Efficacy [3]: 178%
Efficacy [4]: 143%
%max [6]: 113%
EC50 [7]: 118 µM
Efficacy [9]: 234%
EC50 [10]: 0.008 µM
Efficacy [11]: 125%
Efficacy [12]: 31%
Efficacy [14]: 702%
Efficacy [15]: 400%
Efficacy [16, 28]: 105%
Efficacy [17, 28]: 59%
Efficacy [18, 28]: 71%
Efficacy [19]: 446%

COc1ccc(-n2nc3c4ccc(C(C)=O)cc4[nH]cc-3c2=O)cc1
Efficacy [1]: 27%
%max [2]: 2210%
Activity [22]: 80%
Efficacy [3]: 101%
Efficacy [4]: 67%
Efficacy [5]: 3%
Efficacy [23]: 1%
%max [6]: 82%
EC50 [7]: 735 µM
Efficacy [8]: 3%
Efficacy [24]: 1%
Efficacy [9]: 127%
Efficacy [25]: 1%
Activity [26]: 280%
EC50 [10]: 0.05 µM
Efficacy [11]: 52%
Efficacy [12]: 9%
Efficacy [13]: 11%
Efficacy [14]: 426%
Activity [27]: 62%
Efficacy [15]: 205%
Efficacy [16]: 31%
Efficacy [17]: 13%
Efficacy [18]: 10%
Efficacy [19]: 338%
